Data published in ChEMBL document CHEMBL4699509, “Asaroidoxazines from the Roots of Asarum asaroides Induce Apoptosis in Human Neuroblastoma Cells” (J Nat Prod, 2020).
Calls of active or inactive are those of the source. The rule behind the calls is not given here.

How the values were obtained:
SH-SY5Y [1] = experiment: Cytotoxicity against human SH-SY5Y cells assessed as reduction in cell viability by CCK8 assay; format: functional, cell-based
SH-SY5Y [2] = experiment: Induction of apoptosis in human SH-SY5Y cells assessed as nuclear condensation at 30 uM by Hoechst 33342 staining based inverted fluorescent microscopic method (reference value: 2.1%); format: functional
SH-SY5Y [3] = experiment: Induction of apoptosis in human SH-SY5Y cells assessed as nuclear condensation at 1 uM by Hoechst 33342 staining based inverted fluorescent microscopic method (reference value: 2.1%); format: functional
SH-SY5Y [4] = experiment: Induction of apoptosis in human SH-SY5Y cells assessed as nuclear condensation at 1 to 30 uM by Hoechst 33342 staining based inverted fluorescent microscopic method; format: functional, cell-based; settings: dose microM 1-30
SH-SY5Y [5] = experiment: Induction of apoptosis in human SH-SY5Y cells assessed as nuclear fragmentation at 1 to 30 uM by Hoechst 33342 staining based inverted fluorescent microscopic method; format: functional, cell-based; settings: dose microM 1-30
SH-SY5Y [6] = experiment: Induction of apoptosis in human SH-SY5Y cells assessed as increase in caspace-3/7 expression at 1 to 30 uM after 12 hrs by Caspase-Glo assay; format: functional, cell-based; settings: dose microM 1-30, time 12.0 hrs
SH-SY5Y [7] = experiment: Induction of apoptosis in human SH-SY5Y cells assessed as decrease in ATP level at 1 uM by CellTiter-Glo assay relative to control; format: functional; set-up: scale not given: the % may be the effect or the level left
SH-SY5Y [8] = experiment: Induction of apoptosis in human SH-SY5Y cells assessed as decrease in ATP level at 30 uM by CellTiter-Glo assay relative to control; format: functional; set-up: scale not given: the % may be the effect or the level left

In the case of `COc1cc(OC)c2c(c1)-c1c3c(cc4c(=O)onc(c14)[C@H]2SCC(N)=O)OCO3`, the Activity (SH-SY5Y [1]) is reported as “Dose-dependent effect” and the IC50 (SH-SY5Y [1]) is reported as 11.2 µM.

In the case of `COc1ccc(OC)c2c1-c1c3c(cc4c(=O)onc(c14)[C@H]2SCC(N)=O)OCO3`, the Activity (SH-SY5Y [1]) is reported as “Dose-dependent effect”, the IC50 (SH-SY5Y [1]) is reported as 2.7 µM and the Activity (SH-SY5Y [2]) is reported as 70.9%. The Activity (SH-SY5Y [3]) was 36.8%, the Activity (SH-SY5Y [4]) was “Active” and the Activity (SH-SY5Y [5]) was “Active”. The Activity (SH-SY5Y [6]) was “Active”, the Activity (SH-SY5Y [7]) was 57.8% and the Activity (SH-SY5Y [8]) was 51.4%.

With `COc1ccc(OC)c2c1cc1c3c(cc4c(c32)OCO4)C(=O)N1` the Activity (SH-SY5Y [1]) was “Dose-dependent effect” and the IC50 (SH-SY5Y [1]) was 21.2 µM.
